Here are results for two compounds from PMC11161644, “An effective and rapidly degradable disinfectant from disinfection byproducts” (Nature Communications, 2024).

“And” between values parts separate entries of the source, which are not always exact repeats. Identical values can stand only once. Some results are limits rather than exact numbers.

A word on the LD50: it is the dose at which mortality reaches 50%. Read a low LD50 as a more toxic substance.

In series [1] the test system is aquatic invertebrates. Details: method as in earlier work. The conditions noted are these: USEPA; cited from earlier work.
A short description of series [2]: Real-time stability testing of 2,6-DCQ (solid form, 2-propanol solution). It is filed as physicochemical. As to conditions: for Time remaining stable: room temperature. As to the method:
According to the U.S. Food and Drug Administration guidance, 2,6-DCQ in solid form or solution form (using 2-propanol as the solvent, a common ingredient in antiseptic liquids and hand sanitizers) was kept at room temperature (22 ± 1 °C) and 65 ± 5% of relative humidity for stability testing. The concentrations of 2,6-DCQ at different storage times were determined by an Agilent HPLC equipped with a UV detector at 280 nm. A disinfectant product is considered stable for a certain storage time if its concentration remains ≥90% of the initial concentration.

Series [3] in a line: Acute oral toxicity, Hodge and Sterner toxicity scale. The conditions noted are these: in vivo, rat, inferred from LD10 of ref 49.
From the text: The lethal dose 10% (LD 10; the dose at which 10% of the individuals die)
Series [4] is described as follows: Degradation of 2,6-DCQ in phosphate-buffered ultrapure water (pH 8.2) in darkness. Type of series: physicochemical.
Method: For the stability of 2,6-DCQ in aquatic environments, we used seawater because seawater
investigate the effect of chloride ions on the stability of 2,6-DCQ, we have conducted the
degradation experiments of 2,6-DCQ in seawater (pH 8.2) and ultrapure water (added with 4 mM
phosphate buffer at pH 8.2) in darkness.
Lines 185–188 in the revision-marked manuscript, “We also investigated the effect of the high
chloride level in seawater on the degradation of 2,6-DCQ in darkness.

Turning to `Cc1cc(O)cc(C)c1Cl` [PCMX, para-chloro-meta-xylenol, reference compound], the “Toxicity rating to aquatic invertebrates” value in series [1] is listed as “moderately toxic”.

On to `O=C1C=C(Cl)C(=O)C(Cl)=C1` [2,6-DCQ, 2,6-dichlorobenzoquinone], for which the Time remaining stable result is listed as “over 7 months” in series [2] (in 2-propanol) and “over 36 months” in series [2] (solid form). For the same compound, the C/C0 in series [2] (solid form, storage time 0 month) was 1; in series [2] (solid form, storage time 16 month), 1.072 and 1.01; in series [2] (solid form, storage time 36 month), 1.029 and 1.0188; in series [2] (solution form (2-propanol), storage time 0 month), 1; in series [2] (solution form (2-propanol), storage time 2.5 month), 0.9898; in series [2] (solution form (2-propanol), storage time 7 month), 0.9151. Also, the C/C0 in series [2] (solution form (2-propanol), storage time 10 month) came out at 0.8855; in series [2] (solution form (2-propanol), storage time 12.5 month), 0.8301. For the same compound, the 50% lethal dose (LD50) in series [3] was not below 1000 mg/kg. The “Ln (C/C0)” value in series [4] (pH 8.2 in phosphate-buffered water, darkness, 0 h) was determined as 0. In addition, the “Effect of chloride ions on degradation” value in series [4] (seawater vs phosphate-buffered water, pH 8.2, darkness) is recorded as “no discernible effect”.
